In patent publication US10781185B2, “Heterocyclic compounds for the inhibition of PASK” (BioEnergenix LLC, priority 2009, dated 2020):

Key:
PASK [1] = biological target: PASK (Homo sapiens (Human), UniProt Q96RG2); experiment: PAS Kinase Luminescence Assay (Kinase-Glo); type: biochemical; details: purified hPASK from insect cells, read-out: IC50 Kinase Domain
Experimental: Biochemical Assay for hPASK Activity
PAS Kinase Luminescence Assay
One assay for purified hPASK activity utilizes the Kinase-Glo Luminescent Kinase Assay (Promega), which quantifies the amount of ATP remaining in solution following kinase reaction. The assay is carried out in a 96-well plate format and is performed by adding a volume of Kinase-Glo Reagent (Promega, catalog # V3771) equal to the volume of solution in the well of a completed kinase reaction. Kinase-Glo reagent contains Luciferase and its substrate. After addition to a kinase reaction it allows to measure luminescence. The amount of ATP left in solution at the time of Kinase-Glo Plus addition is directly proportional to the luminescence that is measured in each well, and inversely correlated with kinase activity.
Purified hPASK from insect cells (0.02 μg) is added to a 50 μL reaction mix containing 40 mM HEPES (pH 7.0), 100 mM KCl, 5 mM MgCl2, 1 mM DTT and […] of MBP protein. Inhibitory compounds are then added and the mixture is incubated for 10 min at 25° C. before adding 5 μL of ATP (at desired concentration). The reaction is allowed to proceed at 25° C. for 1 hour before adding 50 μL of Kinase-Glo reagent. The luminescence is measured as soon as 10 minutes after Kinase-Glo reagent is added.

PASK [2] = biological target: PASK (UniProt # Q96RG2; human recombinant N-terminal GST tagged construct, residues 879-1323) (Homo sapiens (Human), UniProt Q96RG2); experiment: PASK ATP Radiochemical Assay; type: biochemical; details: 33P-ATP radiochemical, Myelin Basic Protein substrate; read-out: IC50 Kinase Domain
Experimental: PASK ATP Radiochemical Assay
Test compounds in DMSO are then added and the mixture, followed by delivery of ^33P-ATP (specific activity 0.01 μCi/μl final) to initiate the reaction. […] The entire reaction mixture is washed through onto a P81 Phosphocellulose paper and washed three times for 10 minutes in 75 mM phosphoric acid and once in methanol prior to drying and scintillation counting.

Sequence of PASK (Homo sapiens (Human), UniProt Q96RG2) (Q96RG2 999-1251): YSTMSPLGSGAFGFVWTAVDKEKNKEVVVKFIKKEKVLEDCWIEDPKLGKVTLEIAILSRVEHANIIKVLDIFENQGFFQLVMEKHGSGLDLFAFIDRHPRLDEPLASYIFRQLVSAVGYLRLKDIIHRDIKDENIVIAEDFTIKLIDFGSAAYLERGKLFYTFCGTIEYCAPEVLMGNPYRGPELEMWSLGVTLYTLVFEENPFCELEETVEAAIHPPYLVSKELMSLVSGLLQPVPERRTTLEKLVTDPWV
Sequence of PASK (UniProt # Q96RG2; human recombinant N-terminal GST tagged construct, residues 879-1323) (Homo sapiens (Human), UniProt Q96RG2) (Q96RG2 879-1323, change not shown): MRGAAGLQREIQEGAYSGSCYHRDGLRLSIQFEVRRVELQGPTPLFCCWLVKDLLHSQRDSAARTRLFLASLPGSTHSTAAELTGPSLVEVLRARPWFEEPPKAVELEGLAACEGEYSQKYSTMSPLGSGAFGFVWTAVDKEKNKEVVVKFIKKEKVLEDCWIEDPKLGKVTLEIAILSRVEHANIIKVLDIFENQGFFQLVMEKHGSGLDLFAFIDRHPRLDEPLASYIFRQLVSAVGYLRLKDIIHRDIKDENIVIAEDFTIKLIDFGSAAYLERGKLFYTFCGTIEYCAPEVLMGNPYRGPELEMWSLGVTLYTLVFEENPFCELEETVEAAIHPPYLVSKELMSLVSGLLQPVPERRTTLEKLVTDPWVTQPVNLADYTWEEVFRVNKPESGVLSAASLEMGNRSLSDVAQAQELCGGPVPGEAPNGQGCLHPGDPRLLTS

Compound	IC50 (PASK [1]) [µM]	IC50 (PASK [2]) [µM]
O=C(O)c1ccc2nc(N3CCC(c4ccccc4)CC3)c(N3CCC(c4ccccc4)CC3)nc2c1 [Example 30, 2,3-Bis(4-phenylpiperidin-1-yl)quinoxaline-6-carboxylic acid]	< 10	< 10
O=C(O)c1ccc2nc(N3CCC(c4ccc(Cl)cc4)CC3)c(-c3ccc(F)cc3)nc2c1 [Example 24, 2-(4-(4-Chlorophenyl)piperidin-1-yl)-3-(4-fluorophenyl)quinoxaline-6-carboxylic acid]	< 10	< 10
O=C(O)c1ccc2nc(-c3ccccc3)c(N3CCN(c4ncccn4)CC3)nc2c1 [Example 19, 2-Phenyl-3-(4-(pyrimidin-2-yl)piperazin-1-yl)quinoxaline-6-carboxylic acid]	< 10	< 10
O=C(O)c1ccc2nc(N3CCCCCC3)c(-c3ccccc3)nc2c1 [Example 22, 2-(Azepan-1-yl)-3-phenylquinoxaline-6-carboxylic acid]	> 10	–
O=C(O)c1ccc2nc(-c3ccccc3)c(N3CCN(c4ccc(C(F)(F)F)cn4)CC3)nc2c1 [Example 20, 2-Phenyl-3-(4-(5-(trifluoromethyl)pyridin-2-yl)piperazin-1-yl)quinoxaline-6-carboxylic acid]	< 10	< 10
O=C(O)c1ccc2nc(N3CCN(c4ccccn4)CC3)c(-c3ccc(F)cc3)nc2c1 [Example 27, 3-(4-Fluorophenyl)-2-(4-(pyridin-2-yl)piperazin-1-yl)quinoxaline-6-carboxylic acid]	< 10	–
COc1ccc(C2CCN(c3nc4cc(C(=O)O)ccc4nc3-c3ccccc3)CC2)cc1 [Example 11, 3-(4-(4-Methoxyphenyl)piperidin-1-yl)-2-phenylquinoxaline-6-carboxylic acid]	< 10	–

The remaining lines, values ahead:

IC50 (PASK [1]) [µM]	IC50 (PASK [2]) [µM]	Compound
< 10	–	O=C(O)c1ccc2nc(N3CCCCC3)c(-c3ccccc3)nc2c1 [Example 23, 3-Phenyl-2-(piperidin-1-yl)quinoxaline-6-carboxylic acid]
< 10	< 10	CN1CCCN(c2nc3cc(C(=O)O)ccc3nc2-c2ccccc2)CC1 [Example 17, 3-(4-Methyl-1,4-diazepan-1-yl)-2-phenylquinoxaline-6-carboxylic acid]
< 10	< 10	O=C(O)c1ccc2nc(-c3ccccc3)c(N3CCOCC3)nc2c1 [Example 16, 3-Morpholino-2-phenylquinoxaline-6-carboxylic acid]
< 10	–	O=C(O)c1ccc2nc(N3CCC(c4cccc(Cl)c4)CC3)c(-c3ccc(F)cc3)nc2c1 [Example 25, 2-(4-(3-Chlorophenyl)piperidin-1-yl)-3-(4-fluorophenyl)quinoxaline-6-carboxylic acid]
< 10	< 10	COc1ccc(C2CCN(c3nc4ccc(C(=O)O)cc4nc3-c3ccc(F)cc3)CC2)cc1 [Example 26, 3-(4-Fluorophenyl)-2-(4-(4-methoxyphenyl)piperidin-1-yl)quinoxaline-6-carboxylic acid]
< 10	> 10	O=C(O)c1ccc2nc(N3CCC(c4ccc(C(F)(F)F)cc4)CC3)c(-c3ccc(F)cc3)nc2c1 [Example 29, 3-(4-Fluorophenyl)-2-(4-(4-(trifluoromethyl)phenyl)piperidin-1-yl)quinoxaline-6-carboxylic acid]
< 10	< 10	COc1ccc(-c2nc3ccc(-c4nnn[nH]4)cc3nc2-c2ccc(OC)cc2)cc1 [Example 31, 2,3-Bis(4-methoxyphenyl)-6-(1H-tetrazol-5-yl)quinoxaline]
< 10	< 10	O=C(O)c1ccc2nc(-c3ccccc3)c(N3CCN(c4ccc5ccccc5n4)CC3)nc2c1 [Example 21, 2-phenyl-3-(4-(quinolin-2-yl)piperazin-1-yl)quinoxaline-6-carboxylic acid]
